Source: publication PMC10053230, “Constituents of the Stem Bark of Symphonia globulifera Linn. f. with Antileishmanial and Antibacterial Activities” (Molecules, 2023)
In brackets after ≈: the same amount, converted by molar mass. Where two headings read alike, the source gives them in different places.

Legend:
[1] = tested on: L. donovani NR-48822 promastigotes; experiment: In vitro antileishmanial assay, resazurin colorimetric method; assay type: cell-based, Leishmania donovani; conditions: 28 h at 28 °C, triplicate; for IC50: Leishmania donovani, read-out: Antileishmanial Activity IC50 ± SD
Description: The antileishmanial activity on cultured L. donovani 1S (MHOM/SD/62/1S) promastigotes was evaluated using the resazurin colorimetric method as described by Siqueira-Neto et al. (2010) with little modifications. They were all assessed in triplicate at concentrations ranging from 100 to 0.16 µg/mL for the extract and 50–0.08 µg/mL for the compounds. Test plates were incubated for 28 h at 28 °C, followed by the addition of 1 mg/mL resazurin. The negative and positive controls were 0.1% DMSO and amphotericin B (10–0.016 µg/mL), respectively. The cytotoxicity profile of the crude extract and compounds was assessed using the Alamar blue assay (Mosman, 1983) against Raw 264.7 macrophage cells.

[2] = Cytotoxicity, Alamar blue assay; assay type: cell-based; conditions: mouse; Raw 264.7 macrophage cells; read-out: Macrophages CC50 ± SD
Description: (§1) (2010) with little modifications. […] Test plates were incubated for 28 h at 28 °C, followed by the addition of 1 mg/mL resazurin. […] The cytotoxicity profile of the crude extract and compounds was assessed using the Alamar blue assay (Mosman, 1983) against Raw 264.7 macrophage cells.

[3] = tested on: Raw 264.7 macrophage cells; experiment: Cytotoxicity, Alamar blue assay; assay type: cell-based; conditions: for Selectivity Index SI (=CC50/IC50): CC50 Raw 264.7 macrophages / IC50 L. donovani
Description: as §1

[4] = tested on: Klebsiella pneumoniae clinical isolate; experiment: Antibacterial broth microdilution (MIC); assay type: cell-based; conditions: read-out: Antibacterial Activity MIC, Kpc
Description: (§2) The minimum inhibitory concentration (MIC) of the samples was evaluated following the broth microdilution method as described by Eloff, with light modifications. The extracts, compounds, and reference drug were dissolved in DMSO-MHB. […] Gentamicin was used as the positive control. Briefly, one hundred microliters of Mueller Hinton Broth was added to all wells of the 96-well plate, and 100 µL of the compounds/extracts was introduced into the wells in the first row (A) and mixed thoroughly. The sample mixture (100 µL) was removed from the well from row A to perform a twofold serial dilution down the rows (B–H). The last 100 µL was discarded. Then, 100 µL of the inoculum was introduced into the corresponding wells. The final volume in each well was 200 µL. Each extract concentration was assayed in triplicate and each test was performed twice. After an incubation period of 18 h at 37 °C, 20 µL of Alamar Blue was added to each well. The plates were then re-incubated for 30 min at 37 °C. A blue color in the well was scored as ‘‘no bacterial growth”, while a pink color was scored as a ‘‘growth occurrence”. MIC values were read at those concentrations where a pronounced change in color formation was noticed (from blue to pink).

[5] = tested on: Pseudomonas aeruginosa HM801; experiment: Antibacterial broth microdilution (MIC); assay type: cell-based
Description: as §2

S. aureus ATCC25923 = experiment: Antibacterial broth microdilution (MIC); assay type: cell-based; conditions: Staphylococcus aureus, read-out: Antibacterial Activity MIC, Sau
Description: as §2

S. enterica NR13555 = experiment: Antibacterial broth microdilution (MIC); assay type: cell-based; conditions: Salmonella enterica, read-out: Antibacterial Activity MIC, Se
Description: as §2

Salmonella typhi CPC = experiment: Antibacterial broth microdilution (MIC); assay type: cell-based; conditions: Salmonella enterica, read-out: Antibacterial Activity MIC, St
Description: as §2

[6] = tested on: Staphylococcus aureus ATCC43300; experiment: Antibacterial broth microdilution (MIC); assay type: cell-based; conditions: read-out: Antibacterial Activity MIC, Sa
Description: as §2

K. pneumoniae NR41388 = experiment: Antibacterial broth microdilution (MIC); assay type: cell-based, Klebsiella pneumoniae
Description: as §2

[7] = Klebsiella pneumoniae clinical isolate
[8] = Pseudomonas aeruginosa HM801, read-out: Antibacterial Activity MIC, Pa

Molecule: COc1cc2c(=O)c3c(O)c4c(c(CC=C(C)C)c3oc2c(O)c1O)OC(C)(C)C=C4 [Compound 7, xanthone V2]
- IC50 [1]: 12.9 ± 1.11 µg/mL (≈ 30.4 µM)
- CC50 [2]: > 20 µg/mL
- Selectivity Index SI (=CC50/IC50) [3]: >1.54

Molecule: CC(C)=CCCC(C)=CCCC(C)=CCCC1(C)CCC2=C(O1)C(C)(O)C(O)C2=O (stereo not shown) [Compound 4, 12-farnesyl-6,7-dihydroxy-7-methyl-3,4,6,7-tetrahydrocyclopenta[b]pyran-5(2H)-one]
- IC50 [1]: 14 ± 1.14 µg/mL (≈ 33.7 µM)
- CC50 [2]: > 20 µg/mL
- MIC ([4]; Klebsiella pneumoniae): 31.2 µg/mL (≈ 74.9 µM)
- MIC ([5]; Pseudomonas aeruginosa, HM801, read-out: Antibacterial Activity MIC, Pa): 31.2 µg/mL (≈ 74.9 µM)
- MIC (S. aureus ATCC25923): 62.5 µg/mL (≈ 150 µM)
- MIC (S. enterica NR13555): 125 µg/mL (≈ 300 µM)
- MIC (Salmonella typhi CPC): 31.2 µg/mL (≈ 74.9 µM)
- MIC [6]: 500 µg/mL (≈ 1200 µM)
- Antibacterial Activity MIC, Kp (K. pneumoniae NR41388): 62.5 µg/mL

Molecule: CC1(C)C=Cc2c(cc3oc4c(O)c5c(cc4c(=O)c3c2O)C=CC(C)(C)O5)O1 [Compound 8, pyranojacareubin]
- IC50 [1]: 12.9 ± 1.11 µg/mL (≈ 32.9 µM)
- CC50 [2]: > 20 µg/mL
- Selectivity Index SI (=CC50/IC50) [3]: >1.54

Molecule: 1,5-dihydroxy-3-methoxyxanthone [Compound 10]
- Antileishmanial Activity IC50 ± SD [1]: 47.04 ± 1.67 µg/mL
- Macrophages CC50 ± SD ([3]; Raw 264.7 macrophage cells): >20 µg/mL

Molecule: CNC(C)C1CCC(N)C(OC2C(N)CC(N)C(OC3OCC(C)(O)C(NC)C3O)C2O)O1 (stereo not shown) [Gentamycin, reference compound]
- MIC [4, 7]: 0.048 µg/mL (≈ 0.101 µM)
- MIC [5, 8]: 0.048 µg/mL (≈ 0.101 µM)
- MIC (S. aureus ATCC25923): 0.03 µg/mL (≈ 0.0628 µM)
- MIC (S. enterica NR13555): 0.07 µg/mL (≈ 0.147 µM)
- MIC (Salmonella typhi CPC): 0.048 µg/mL (≈ 0.101 µM)
- MIC [6]: 0.07 µg/mL (≈ 0.147 µM)

Molecule: C=C(C)CCC1CC2(CC=C(C)C)C(=O)C(=C(O)c3ccc(O)c(O)c3)C(=O)C(CC=C(C)C)(C2=O)C1(C)CCC=C(C)C (stereo not shown) [Compound 1, guttiferone U]
- IC50 [1]: 12.9 ± 1.11 µg/mL (≈ 21.4 µM)
- CC50 [2]: 28.1 ± 5.72 µg/mL (≈ 46.5 µM)
- Selectivity Index SI (=CC50/IC50) [3]: 2.17
- MIC [4, 7]: 3.9 µg/mL (≈ 6.47 µM)
- MIC [5, 8]: 3.9 µg/mL (≈ 6.47 µM)
- MIC (S. aureus ATCC25923): 3.9 µg/mL (≈ 6.47 µM)
- MIC (S. enterica NR13555): 62.5 µg/mL (≈ 104 µM)
- MIC (Salmonella typhi CPC): 3.9 µg/mL (≈ 6.47 µM)
- MIC [6]: 125 µg/mL (≈ 207 µM)
- Antibacterial Activity MIC, Kp (K. pneumoniae NR41388): 62.5 µg/mL

Molecule: COc1cc2c(=O)c3c(O)c4c(c(CC=C(C)C)c3oc2c(O)c1OC)OC(C)(C)C=C4 [Compound 6, gaboxanthone]
- IC50 [1]: 16 ± 1.2 µg/mL (≈ 36.4 µM)
- CC50 [2]: > 20 µg/mL
- Selectivity Index SI (=CC50/IC50) [3]: >1.25

Molecule: C[C@@H]1[C@H](O)[C@@H](C)/C=C/C=C/C=C/C=C/C=C/C=C/C=C/[C@H](O[C@@H]2O[C@H](C)[C@@H](O)[C@H](N)[C@@H]2O)C[C@@H]2O[C@](O)(C[C@@H](O)C[C@@H](O)[C@H](O)CC[C@@H](O)C[C@@H](O)CC(=O)O[C@H]1C)C[C@H](O)[C@H]2C(=O)O [Amphotericin B, reference compound]
- IC50 [1]: 0.048 µg/mL (≈ 0.0519 µM)
